From PubChem BioAssay (NCI)
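How tested: cells in 96-well plates exposed to compound for 48 hours at five concentrations. GI50 marks 50% less growth. TGI denotes the concentration required for complete inhibition of growth.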

Key:
Experiment in all cases: DTP human tumour cell line panel, 48 h
RPMI-8226 leukemia = tested on: RPMI-8226 leukemia
HS 578T breast = tested on: HS 578T breast
A549 NSCLC = tested on: A549 NSCLC
SK-MEL-28 melanoma = tested on: SK-MEL-28 melanoma
NCI-H460 lung = tested on: NCI-H460 lung
OVCAR-3 ovarian = tested on: OVCAR-3 ovarian
HOP-92 NSCLC = tested on: HOP-92 NSCLC
CAKI-1 renal = tested on: CAKI-1 renal
DMS 273 small cell lung = tested on: DMS 273 small cell lung

| Compound | GI50 (RPMI-8226 leukemia) [µM] | TGI (RPMI-8226 leukemia) [µM] | GI50 (HS 578T breast) [µM] | TGI (HS 578T breast) [µM] | GI50 (A549 NSCLC) [µM] | TGI (A549 NSCLC) [µM] | GI50 (SK-MEL-28 melanoma) [µM] | TGI (SK-MEL-28 melanoma) [µM] | GI50 (NCI-H460 lung) [µM] | TGI (NCI-H460 lung) [µM] | GI50 (OVCAR-3 ovarian) [µM] | TGI (OVCAR-3 ovarian) [µM] | GI50 (HOP-92 NSCLC) [µM] | TGI (HOP-92 NSCLC) [µM] | GI50 (CAKI-1 renal) [µM] | TGI (CAKI-1 renal) [µM] | TGI (DMS 273 small cell lung) [µM] |
| --- | --- | --- | --- | --- | --- | --- | --- | --- | --- | --- | --- | --- | --- | --- | --- | --- | --- |
| O=C1c2ccccc2-c2c1c1c(O)cccc1n2Cc1ccccc1 | 30 | > 100 | 10.3 | 32.8 | 16.8 | > 100 | 20.8 | 62.4 | 10.3 | 45.6 | 4.17 | 17.3 | 4.22 | 19.8 | 7.15 | 20.8 | – |
| CNCc1cccc2c1OCCOCCOCCNS(=O)(=O)c1ccc(cc1)-c1cnc(N)c(n1)C(=O)N2 | 1.73 | 4.26 | 0.477 | 3.05 | 1.58 | 4.82 | 1.66 | 3.27 | 1 | 3.25 | 1.12 | 2.61 | 3.05 | 14.7 | 0.46 | 1.86 | – |
| COc1ccc(-n2c(=O)c3ccccc3n(Cc3ccc(C(=O)NO)cc3)c2=O)cc1 | 2.42 | 12.6 | 2.67 | 24.2 | 4.1 | 16.3 | 2.18 | 5.83 | 2.58 | 12.9 | 2.07 | 5.95 | 2.1 | 5.33 | 6.39 | 23.9 | – |
| Cn1cc(-c2ccc3c(c2)ncn3-c2cc(NS(=O)(=O)C3CC3)cc(-c3ccc(F)cc3F)c2)cn1 | 3.97 | 32.2 | 1.68 | 12.6 | 9.01 | > 100 | 20.9 | > 100 | 23.4 | > 100 | 14.5 | 62.3 | 2.83 | 62.4 | 3.77 | > 100 | – |
| O/N=C1/C(=C/c2ccc(OCc3ccccc3)cc2)CCCC1C(NO)c1ccc(OCc2ccccc2)cc1 (stereo not drawn) | – | – | – | – | – | > 100 | – | > 100 | – | > 100 | – | 88.8 | – | 63.5 | – | 73.8 | > 100 |
| COc1cc(/C=C/C(=O)c2nc3cc(F)ccc3nc2C)cc(OC)c1OC | 0.327 | 3.07 | 5.34 | > 100 | 7.37 | > 100 | 7.91 | > 60.3 | 4.05 | > 100 | 2.59 | > 28.1 | 2.81 | > 100 | 7.42 | > 100 | – |
| CN(c1ccccc1)c1c2ccccc2nc2[nH]c3ccccc3c12 | 1.49 | 3.92 | 3.06 | 12.9 | 0.943 | 3.27 | 2.08 | 7.42 | 1.16 | 10.3 | 2 | 6.01 | 1.79 | 6.46 | 1.92 | 5.92 | – |
